Test results as given in US20260373102A1, “INJECTABLE GUANFACINE FORMULATIONS AND METHODS” (Cumberland Pharmaceuticals Inc., priority 2023, published 2026).
Where a name gives a salt, the structure may show the parent alone. Read-outs that look alike come from different tables or passages of the source. Each block holds one compound with its values, some of them ahead of it.

Columns and labels:
Assay type in all cases: physicochemical
[1] = Guanfacine solubility at pH 7.0 and 8.0; settings: for solubility at 1 h: sodium phosphate buffer, aqueous buffer, 0.22 μm filtered, HPLC, read-out: concentration of filtered sample (solubility)
Description: Stock solutions of acetic acid and sodium acetate were used for making another pH 4.0 sample and a pH 5.0 sample. For the pH 4.0 sample, 920 μL of acetic acid was added to 80 μL of sodium acetate and then the final solution was prepared as described above to achieve a 5 mM buffer concentration. For the pH 5.0 sample, 700 μL of acetic acid was added to 1,300 μL of sodium acetate and 1.0 mLs of that buffer stock solution was added to make a final buffer concentration of 20 mM. With the exception of the buffer concentration, the pH 5.0 sample solution was completed as described above. Another sample solution was also made at 20 mM sodium acetate, pH 5.0, except the solvent was sparged with nitrogen and the head space of the vial was purged with nitrogen just prior to stoppering in order to remove air from the sample. For the pH 6.0 sample, a stock solution with 1,840 μL of 0.5 M sodium phosphate monobasic and 160 μL of 0.5 M sodium phosphate dibasic was made that was then diluted to 10 mM sodium phosphate by adding 1.0 mL to a final of 50 grams of solution. The solution was then completed as described previously.
Follow up testing was done to confirm that Guanfacine solubility was lower at pH 7.0 and 8.0 compared to the other samples made at pH levels≤6.0. For the pH 7.0 sample, a stock solution of 0.192 mL of 0.5 M sodium phosphate monobasic and 0.208 mLs of 0.5 M sodium phosphate dibasic was added to a glass tube followed by ~8.0 mLs of WFI and ~11.5 mg of Guanfacine-HCl. The solution was then adjusted to pH 7.0 with a solution of 0.2 N NaOH and adjusted to a volume of 10 mLs with WFI. For the pH 8.0 sample, a stock solution of 0.028 mL of 0.5 M sodium phosphate monobasic and 0.372 mLs of 0.5 M sodium phosphate dibasic was added to a glass tube followed by ~8.0 mLs of WFI and 11.48 mg of Guanfacine-HCl. The solution was then adjusted to pH 8.0 with a solution of 0.2 N NaOH and adjusted to a volume of 10 mLs with WFI. […] After 1 hour of sonication both samples were then filtered through a 0.22 μm PVDF filter and analyzed by HPLC. The concentration of the filtered pH 7.0 sample was ~0.35 mg/mL and the concentration of the filtered pH 8.0 sample was ~0.12 mg/mL. Therefore Guanfacine-HCl was less soluble at pH 7.0 and 8.0 compared to pH levels of 6.0 and lower.

[2] = Chemical stability of Guanfacine solutions in WFI at room temperature (vials, IV bags; HPLC); settings: for degraded at 72 h: 0.5 mg/mL
Description: Guanfacine HCl powder (Laxai Avanti, Lot CPL-01-2013-014-033) was dissolved in WFI at a concentration of 0.5 mg/mL, passed through a 0.22 μm PVDF membrane in a biosafety cabinet, and then filled into 20 mL glass vials (particle free), or 150 ml polyolefin IV bags. The vials and IV bags were stored at room temperature conditions. The Guanfacine solutions in the vials and IV bags were at pH 5.7 and 5.0, respectively. After 72 hours at room temperature the Guanfacine solution in the vials formed a degradation product at 0.23% and the Guanfacine solution in the IV bags formed a degradation product at 0.16%.
Additionally, Guanfacine HCl (Laxai Avanti, Lot CPL-01-2013-014-033) was dissolved in WFI to a final concentration of 1.14 mg/mL, pH 4.5, passed through a 0.22 μm PVDF membrane in a biosafety cabinet, and then filled into glass vials. The glass vials were stored at room temperature conditions.

[3] = Compatibility of Guanfacine with Ropivacaine (appearance, pH, particulate matter); settings: for Particulate Matter 10 μm / Particulate Matter 25 μm: Guanfacine only in WFI, filtered, before mixing; for concentration of Guanfacine freebase in the WFI control: HPLC
Description: The compatibility of 1.0 mg/mL and 0.1 mg/mL solutions of Guanfacine diluted into 30 mL Ropivacaine (USP 5 mg/mL Hospira, Lot-48-031-DK) was tested. A 0.1 and 1.0 mg/mL solution of Guanfacine free base in water for injection (WFI) was prepared. For every 1.148 mg of Guanfacine-HCl there is 1 mg of Guanfacine free base. For the 0.1 mg/mL solution, 57.4 mg of Guanfacine-HCl (lot #CPL-01-2013-014-033 Laxai Avanti) was dissolved in 400 mL of WFI (Hospira 1000 mL Bag, Lot 51-114-JT). Once fully dissolved, the solution was transferred to a 500 mL volumetric flask and q.s. to volume. For the 1.0 mg/mL solution, 114.8 mg of Guanfacine-HCl was dissolved in 80 mL of WFI. Once fully dissolved, the solution was transferred to a 100 mL volumetric flask and q.s. to volume.
Two glass vials were rinsed with WFI three times and emptied. The vials were rinsed with filtered Guanfacine solution three times, 5 mLs at a time. Approximately 35 mLs of the Guanfacine solutions were filtered into the vials using a Millex GV Sterile PVDF 0.22 μm syringe filter. The particulate content in the filtered Guanfacine solutions was determined prior to adding to the Ropivacaine vial using an APSS Liquiliaz particle counter. 1.2 mLs of filtered Guanfacine solutions at 0.1 or 1.0 mg/mL were injected into three separate vials containing Ropivacaine for each concentration (1:25 dilution of Guanfacine:Ropivacaine). The concentration of Guanfacine freebase in the WFI control was 0.10 mg/mL and 1.05 mg/mL, as determined by HPLC. The compatibility solutions were not able to be analyzed by the HPLC assay for Guanfacine because Guanfacine and Ropivacaine have very similar elution times and only the Ropivacaine peak could be seen on the chromatogram.
The appearance, pH, and particulate content for one vial at each concentration at time zero, 4 to 6 hours, and 24 hours was assessed and the results are reported in Table 1, below.

solubility compared to pH levels of 6.0 and lower ([1]; pH 7.0 and 8.0): less soluble | appearance of solution ([1]; pH 7.0 and pH 8.0 samples (both), after 1 hour of sonication): cloudy and contained precipitate | solubility at 1 h ([1]; pH 7.0, sodium phosphate, after 1 hour of sonication): ~350 µg/mL | solubility at 1 h ([1]; pH 8.0, sodium phosphate, after 1 hour of sonication): ~120 µg/mL | Area % of peak 2 ([2]; 1.14 mg/mL Guanfacine-HCl in WFI, pH 4.5, glass vials, 1 week, RRT 1.44): 0.02% | Area % of peak 3 (degradation product) ([2]; 1.14 mg/mL Guanfacine-HCl in WFI, pH 4.5, glass vials, 1 week, RRT 8.72, 10080 min): 0.26% | Area % of guanfacine peak (peak 1) ([2]; 1.14 mg/mL Guanfacine-HCl in WFI, pH 4.5, glass vials, time zero, RRT 1): 99.98% | Area % of peak 2 ([2]; 1.14 mg/mL Guanfacine-HCl in WFI, pH 4.5, glass vials, time zero, RRT 1.45): 0.02% | remaining at 168 h ([2]; water, 1.14 mg/mL Guanfacine-HCl in WFI, pH 4.5, glass vials, 1 week, RRT 1, read-out: Area % of guanfacine peak (peak 1)): 99.7%
Compound: N=C(N)NC(=O)Cc1c(Cl)cccc1Cl [Guanfacine-HCl, N-amidino-2-(2,6-dichlorophenyl) acetamide monohydrochloride]

dissolution at 1 mg/mL ([1]; pH 7.0, 1 mg/mL): did not completely dissolve | Area % of guanfacine peak (peak 1) ([2]; 0.5 mg/mL in WFI in IV bags, pH 5.0, time zero, RRT 1.00): 99.94% | Area % of peak 2 (degradation product) ([2]; 0.5 mg/mL in WFI in IV bags, pH 5.0, time zero, RRT 8.77): 0.06% | Area % of peak 2 ([2]; 0.5 mg/mL in WFI in vials, pH 5.7, 24 hours, RRT 1.31): 0.02% | Area % of peak 2 ([2]; 0.5 mg/mL in WFI in vials, pH 5.7, 72 hours, RRT 1.32): 0.01% | Area % of peak 3 ([2]; 0.5 mg/mL in WFI in vials, pH 5.7, 72 hours, RRT 4.31): 0.01% | Area % of guanfacine peak (peak 1) ([2]; 0.5 mg/mL in WFI in vials, pH 5.7, time zero, RRT 1.00): 99.94% | Area % of peak 2 ([2]; 0.5 mg/mL in WFI in vials, pH 5.7, time zero, RRT 1.31): 0.01% | Area % of peak 4 (degradation product) ([2]; 0.5 mg/mL in WFI in vials, pH 5.7, time zero, RRT 8.58): 0.05% | remaining at 24 h ([2]; water, 0.5 mg/mL in WFI in IV bags, pH 5.0, 24 hours, RRT 1.00, read-out: Area % of guanfacine peak (peak 1)): 99.8% | degraded at 24 h ([2]; water, 0.5 mg/mL in WFI in IV bags, pH 5.0, 24 hours, RRT 8.79, read-out: Area % of peak 2 (degradation product)): 0.15% | remaining at 72 h ([2]; water, 0.5 mg/mL in WFI in IV bags, pH 5.0, 72 hours, RRT 1.00, read-out: Area % of guanfacine peak (peak 1)): 99.8% | remaining at 24 h ([2]; water, 0.5 mg/mL in WFI in vials, pH 5.7, 24 hours, RRT 1.00, read-out: Area % of guanfacine peak (peak 1)): 99.9% | degraded at 24 h ([2]; water, 0.5 mg/mL in WFI in vials, pH 5.7, 24 hours, RRT 8.58, read-out: Area % of peak 4 (degradation product)): 0.1% | remaining at 72 h ([2]; water, 0.5 mg/mL in WFI in vials, pH 5.7, 72 hours, RRT 1.00, read-out: Area % of guanfacine peak (peak 1)): 99.8% | degraded at 72 h ([2]; water, IV bags, pH 5.0, 72 hours at room temperature, read-out: degradation product formed): 0.16% | degraded at 168 h ([2]; water, glass vials, pH 4.5, one week at room temperature, 1.14 mg/mL, read-out: degradation product formed): 0.26% | degraded at 72 h ([2]; water, vials, pH 5.7, 72 hours at room temperature, read-out: degradation product formed): 0.23% | compatibility with Ropivacaine ([3]; 1.0 mg/mL in WFI, 1:25 dilution of Guanfacine to Ropivacaine): compatible with Ropivacaine | Particulate Matter 10 μm ([3]; 0.1 mg/mL): 0 Particles per mL | Particulate Matter 25 μm ([3]; 0.1 mg/mL): 0 Particles per mL | Particulate Matter 10 μm ([3]; 1 mg/mL): 6 Particles per mL | Particulate Matter 25 μm ([3]; 1 mg/mL): 0 Particles per mL | concentration of Guanfacine freebase in the WFI control ([3]; nominal 0.1 mg/mL): 100 µg/mL | concentration of Guanfacine freebase in the WFI control ([3]; nominal 1.0 mg/mL): 1050 µg/mL
Compound: N=C(N)NC(=O)Cc1c(Cl)cccc1Cl [Guanfacine]
